From patent US12162913B2 (priority 2016, dated 2024) come the findings set out here.

Assay [1] deals with R. microplus nAChRα6 (Rma6) homopentamers (Rhipicephalus microplus, UniProt A0A223PM23). Nature of the assay: Two-electrode voltage clamp on Xenopus oocytes expressing Rmα6 homopentamers. Format: cell-based. How it is done:
(§1) The plasmids containing the sequences of choice were linearized using BeuI (Spel) FastDigest (ThermoFisher) restriction enzyme for 30 min at 37°, and an aliquot run on an agarose gel to check for complete linearization. The plasmid DNA was phenol:chloroform purified and ethanol precipitated. The pellet was re-suspended in deionized water. Capped RNA was synthesized using mMessage mMachine T7 kit from 1 μg linearized plasmid DNA, the sample phenol:chloroform purified and isopropanol precipitated. The pellet was re-suspended in deionized water to a concentration of 500 ng/μl, analysed on an agarose gel for integrity and stored at −80° C. until further use.
(§2) Xenopus laevis oocytes were purchased as whole ovaries from the European Xenopus Resource Centre (University of Portsmouth), delivered in less than 24 h in Modified Barth's Saline (MBS) on wet ice. Upon arrival, the oocytes were treated with 2 mg/ml collagenase type I (Sigma-Aldrich) in calcium-free Barth's solution (NaCl 88 mM, Tris-HCl 15 mM, NaHCO32.4 mM, MgCl2 0.82 mM, KCl 1 mM, pH 7.5) for 30 min at room temperature. The separated oocytes were rinsed thoroughly in calcium-free Barth's solution, manually de-folliculated and injected using a Drummond microinjector with 25 ng/oocyte capped RNA. The oocytes were incubated at 18° C. in calcium-containing ([…]) Barth's solution supplemented with 4 μg/ml Kanamycin, 50 μg/ml Tetracycline, 100 U/ml Penicillin and 100 μg/ml Streptomycin. Two-electrode voltage clamp recordings were performed after 3-5 days using an OC-725C oocyte clamp (Warner instruments) with the membrane potential clamped at −60 mV. The oocytes were continuously perfused with frog Ringer's solution (NaCl 115 mM, KCl 2.5 mM, CaCl2) 1.8 mM and HEPES 10 mM) and the dilutions of ligands prepared in Ringer's saline applied using a VC-8 multi-valve perfusion system (Warner Instruments). Following ligand application, the current required to maintain the membrane potential at −60 mV was measured and used for subsequent data analysis.
(§3) Two-electrode voltage clamp electrophysiology data acquisition was done using LabScribe software (iWorks Systems) and the data transferred to GraphPad Prism (GraphPad Software) for traces analysis and dose-response curve fitting.
Background: In two-electrode clamp one electrode senses voltage and the other passes current.

For assay [2], the target named is R. microplus nAChRα5 (Rmα5) homopentamers (Rhipicephalus microplus, UniProt A0A223PM17, I539V). Format: cell-based. How it is done: as §1, §2, §3
Sequence of R. microplus nAChRα5 (Rmα5) homopentamers (A0A223PM17 entry or part of it I539V): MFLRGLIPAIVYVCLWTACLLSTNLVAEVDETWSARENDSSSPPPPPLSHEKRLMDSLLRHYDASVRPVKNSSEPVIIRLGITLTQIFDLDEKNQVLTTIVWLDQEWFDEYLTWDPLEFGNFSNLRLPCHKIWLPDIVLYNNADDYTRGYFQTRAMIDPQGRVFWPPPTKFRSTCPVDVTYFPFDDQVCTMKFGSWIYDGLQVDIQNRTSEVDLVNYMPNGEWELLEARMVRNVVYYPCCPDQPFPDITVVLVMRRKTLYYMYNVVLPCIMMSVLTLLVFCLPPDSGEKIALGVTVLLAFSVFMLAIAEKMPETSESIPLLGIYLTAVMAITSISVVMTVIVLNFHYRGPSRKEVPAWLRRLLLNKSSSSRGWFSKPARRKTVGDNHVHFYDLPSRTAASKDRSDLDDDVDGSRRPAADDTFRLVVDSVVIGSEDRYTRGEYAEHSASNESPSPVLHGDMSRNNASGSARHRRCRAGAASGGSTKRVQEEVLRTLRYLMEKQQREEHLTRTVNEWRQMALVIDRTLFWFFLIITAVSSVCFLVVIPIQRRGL

“Also recorded” adds a separate entry of the source. Like-named read-outs stand apart in the source and are kept apart here.

What is called EC50 is the midpoint of the concentration-response curve.

Sequence of R. microplus nAChRα6 (Rma6) homopentamers (A0A223PM23 entry or part of it): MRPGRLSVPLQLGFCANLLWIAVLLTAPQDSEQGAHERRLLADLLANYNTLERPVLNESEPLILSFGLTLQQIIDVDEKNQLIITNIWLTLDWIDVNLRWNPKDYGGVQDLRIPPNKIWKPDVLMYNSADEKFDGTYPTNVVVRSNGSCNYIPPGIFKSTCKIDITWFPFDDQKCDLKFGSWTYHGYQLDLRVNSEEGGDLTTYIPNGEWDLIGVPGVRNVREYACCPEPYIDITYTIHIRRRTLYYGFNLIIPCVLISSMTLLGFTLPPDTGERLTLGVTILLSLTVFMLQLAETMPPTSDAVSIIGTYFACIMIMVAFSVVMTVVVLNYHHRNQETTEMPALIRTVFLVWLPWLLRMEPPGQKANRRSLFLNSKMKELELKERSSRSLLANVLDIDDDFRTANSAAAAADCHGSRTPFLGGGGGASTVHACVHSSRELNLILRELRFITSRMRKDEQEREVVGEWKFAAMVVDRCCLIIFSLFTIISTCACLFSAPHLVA

Take `CC(=O)OCC[N+](C)(C)C` [ACh, acetylcholine]: the EC50 in assay [1] (membrane potential clamped at −60 mV, dose-response curve, read-out: EC50 (activation of Rma6 receptor)) was 1.97 ± 1.2 µM.
For the compound `O=[N+]([O-])NC1=NCCN1Cc1ccc(Cl)nc1` [Imidacloprid, imidacloprid], the “action on Rma6 receptor” value is given as “partial agonist” in assay [1] and “induced responses” in assay [1] (listed as imidacloprid). For the same compound, the “character of responses on Rma6” value in assay [1] is listed as “small, non-desensitizing responses”.
Consider spinosad, for which the “EC50 of spinosad lower than ACh EC50 (fold)” value in assay [2] (Rmα5 receptor) was “over 10 times”. For the same compound, the “action on Rmα5 receptor” value in assay [2] (Xenopus oocytes) is listed as “higher efficacy than ACh; also recorded: agonist”. For the same compound, the “character of responses on Rmα5” value in assay [2] (Xenopus oocytes, ACh 300 μM, spinosad 30 μM representative traces) is “large and also non-desensitizing”. Further, the “time to response plateau” value in assay [2] (during application) is “around 30 s”. Also, the “time to first signs of depolarization” value in assay [2] (during perfusion) is given as “about 15 s”. The “action on Rma6 receptor” value in assay [1] is “does not directly activate; also recorded: type II allosteric modulator”.
